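1) Cells in 96-well plates. 2) Compound, 48 h, 5 concentrations. 3) Linear interpolation between surrounding doses. 4) Unreached endpoint = highest concentration. The concentration for 50% growth inhibition is given as GI50. TGI denotes the concentration required for complete inhibition of growth.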
Assays:
Experiment in all cases: NCI-60 cell line screen, 48 h
[1] = tested on: PC-3 prostate
[2] = tested on: A549 NSCLC
[3] = tested on: NCI-H226 lung
[4] = tested on: DU-145 prostate
[5] = tested on: U251 CNS
[6] = tested on: MDA-MB-231 breast
[7] = tested on: UACC-257 melanoma
[8] = tested on: OVCAR-3 ovarian
[9] = tested on: SW-620 colon
[10] = tested on: SF-295 CNS
[11] = tested on: RPMI-8226 leukemia
[12] = tested on: HCC-2998 colon
[13] = tested on: MCF7 breast
[14] = tested on: UO-31 renal
[15] = tested on: OVCAR-5 ovarian
[16] = tested on: HS 578T breast
[17] = tested on: SNB-19 CNS
[18] = tested on: NCI/ADR-RES ovarian
[19] = tested on: NCI-H23 lung
[20] = tested on: SF-539 CNS
[21] = tested on: SNB-75 CNS
[22] = tested on: SK-MEL-28 melanoma
[23] = tested on: MDA-MB-435
[24] = tested on: UACC-62 melanoma
[25] = tested on: OVCAR-4 ovarian
[26] = tested on: 786-0 renal
[27] = tested on: NCI-H522 lung
[28] = tested on: HT29 colon
[29] = tested on: K-562 leukemia
[30] = tested on: NCI-H460 lung
[31] = tested on: HCT-15 colon
[32] = tested on: SF-268 CNS
[33] = tested on: HOP-92 NSCLC
[34] = tested on: TK-10 renal
[35] = tested on: SN12C renal
[36] = tested on: LOX IMVI melanoma
[37] = tested on: HCT-116 colon
[38] = tested on: CCRF-CEM leukemia
[39] = tested on: A498 renal
[40] = tested on: EKVX NSCLC
[41] = tested on: RXF 393 renal
[42] = tested on: HL-60(TB) leukemia
[43] = tested on: COLO 205 colon
[44] = tested on: M14 melanoma
[45] = tested on: T-47D breast
[46] = tested on: ACHN renal
[47] = tested on: MDA-MB-468 breast
[48] = tested on: SR leukemia
[49] = tested on: CAKI-1 renal
[50] = tested on: MALME-3M melanoma
[51] = tested on: OVCAR-8 ovarian
[52] = tested on: SK-MEL-2 melanoma
[53] = tested on: KM12 colon
[54] = tested on: BT-549 breast
[55] = tested on: SK-MEL-5 melanoma
[56] = tested on: IGROV1 ovarian
[57] = tested on: MOLT-4 leukemia
[58] = tested on: SK-OV-3 ovarian
[59] = tested on: HOP-62 NSCLC

COc1cc2c3c(n(CCCn4ccnc4)c(=O)c2cc1OC)-c1nc2c(cc1C3=O)OCO2
GI50 [1]: 32.2 µM | TGI [1]: > 100 µM | GI50 [2]: 3.31 µM | TGI [2]: > 100 µM | GI50 [3]: 0.124 µM | TGI [3]: > 100 µM | GI50 [4]: 0.0616 µM | TGI [4]: > 100 µM | GI50 [5]: 0.0621 µM | TGI [5]: > 100 µM | GI50 [6]: 45.1 µM | TGI [6]: > 100 µM | TGI [7]: > 100 µM | GI50 [8]: 38.5 µM | TGI [8]: > 100 µM | GI50 [9]: 0.207 µM | TGI [9]: > 100 µM | GI50 [10]: 0.0351 µM | TGI [10]: 12.8 µM | GI50 [11]: 0.852 µM | TGI [11]: > 100 µM | GI50 [12]: 19.4 µM | TGI [12]: > 100 µM | GI50 [13]: 0.0247 µM | TGI [13]: 16.3 µM | GI50 [14]: 0.197 µM | TGI [14]: > 100 µM | GI50 [15]: > 36.7 µM | TGI [15]: > 100 µM | GI50 [16]: > 100 µM | TGI [16]: > 100 µM | GI50 [17]: 0.0685 µM | TGI [17]: > 100 µM | GI50 [18]: > 100 µM | TGI [18]: > 100 µM | GI50 [19]: 0.0442 µM | TGI [19]: 11.3 µM | GI50 [20]: 0.0363 µM | TGI [20]: 0.525 µM | GI50 [21]: 0.03 µM | TGI [21]: > 100 µM | GI50 [22]: > 100 µM | TGI [22]: > 100 µM | GI50 [23]: 4.7 µM | TGI [23]: > 100 µM | GI50 [24]: 0.0359 µM | TGI [24]: > 100 µM | GI50 [25]: > 100 µM | TGI [25]: > 100 µM | GI50 [26]: 0.105 µM | GI50 [27]: 1.07 µM | TGI [27]: 37.6 µM | GI50 [28]: 0.637 µM | TGI [28]: > 100 µM | GI50 [29]: 0.0742 µM | TGI [29]: > 100 µM | GI50 [30]: 0.0325 µM | TGI [30]: > 36.4 µM | GI50 [31]: 13.1 µM | TGI [31]: > 100 µM | GI50 [32]: 0.0769 µM | TGI [32]: > 100 µM | GI50 [33]: > 47.1 µM | TGI [33]: > 100 µM | GI50 [34]: > 100 µM | TGI [34]: > 100 µM | GI50 [35]: 0.134 µM | TGI [35]: > 100 µM | GI50 [36]: 0.0448 µM | TGI [36]: 5.83 µM | GI50 [37]: 0.169 µM | TGI [37]: > 100 µM | GI50 [38]: 0.028 µM | GI50 [39]: > 100 µM | TGI [39]: > 100 µM | GI50 [40]: > 66.4 µM | TGI [40]: > 100 µM | GI50 [41]: 0.335 µM | TGI [41]: > 100 µM | GI50 [42]: 0.0485 µM | TGI [42]: > 100 µM | GI50 [43]: 12.6 µM | TGI [43]: > 100 µM | GI50 [44]: 0.0554 µM | TGI [44]: > 69.3 µM | GI50 [45]: 0.0376 µM | TGI [45]: > 100 µM | GI50 [46]: 0.0389 µM | GI50 [47]: 0.028 µM | TGI [47]: 0.115 µM | GI50 [48]: 0.0274 µM | TGI [48]: 24.5 µM | GI50 [49]: 0.04 µM | TGI [49]: > 100 µM | GI50 [50]: 13.1 µM | TGI [50]: > 100 µM | GI50 [51]: 0.803 µM | TGI [51]: > 100 µM | GI50 [52]: > 100 µM | TGI [52]: > 100 µM | GI50 [53]: > 100 µM | TGI [53]: > 100 µM | GI50 [54]: 0.356 µM | TGI [54]: 26.3 µM | GI50 [55]: 0.07 µM | TGI [55]: 4.63 µM | GI50 [56]: > 52 µM | TGI [56]: > 100 µM | GI50 [57]: 0.0356 µM | TGI [57]: > 100 µM | GI50 [58]: 0.0459 µM | TGI [58]: > 100 µM | GI50 [59]: 0.0339 µM | TGI [59]: > 100 µM

COc1cccc2nc(Nc3cccc(NC(=O)c4ccc(CN5CCN(C)CC5)c(C(F)(F)F)c4)c3)ccc12
GI50 [1]: 1.7 µM | TGI [1]: 4.46 µM | GI50 [2]: 2.44 µM | TGI [2]: 7.8 µM | GI50 [3]: 4.63 µM | TGI [3]: 15.8 µM | GI50 [4]: 1.98 µM | TGI [4]: 4.42 µM | GI50 [5]: 1.92 µM | TGI [5]: 3.71 µM | GI50 [6]: 1.77 µM | TGI [6]: 3.39 µM | GI50 [7]: 1.98 µM | TGI [7]: 3.85 µM | GI50 [8]: 2.15 µM | TGI [8]: 5.17 µM | GI50 [9]: 1.73 µM | TGI [9]: 3.27 µM | GI50 [10]: 1.77 µM | TGI [10]: 3.31 µM | GI50 [11]: 2.78 µM | TGI [11]: 8.34 µM | GI50 [12]: 1.99 µM | TGI [12]: 3.45 µM | GI50 [13]: 1.57 µM | TGI [13]: 3.2 µM | GI50 [14]: 1.64 µM | TGI [14]: 3.18 µM | GI50 [15]: 1.84 µM | TGI [15]: 3.71 µM | GI50 [16]: 1.84 µM | TGI [16]: 4.57 µM | GI50 [17]: 1.78 µM | TGI [17]: 3.38 µM | GI50 [18]: 2.28 µM | TGI [18]: 5.95 µM | GI50 [19]: 1.91 µM | TGI [19]: 3.73 µM | GI50 [20]: 1.64 µM | TGI [20]: 3.01 µM | GI50 [21]: 1.6 µM | TGI [21]: 4.37 µM | GI50 [22]: 1.71 µM | TGI [22]: 3.13 µM | GI50 [23]: 1.68 µM | TGI [23]: 3.21 µM | GI50 [24]: 1.75 µM | TGI [24]: 3.22 µM | GI50 [25]: 2.21 µM | TGI [25]: 5.94 µM | GI50 [27]: 1.79 µM | TGI [27]: 3.65 µM | GI50 [29]: 2.7 µM | TGI [29]: > 100 µM | GI50 [30]: 1.71 µM | TGI [30]: 3.19 µM | GI50 [31]: 1.78 µM | TGI [31]: 3.56 µM | GI50 [32]: 1.69 µM | TGI [32]: 3.75 µM | GI50 [33]: 1.5 µM | TGI [33]: 3.86 µM | GI50 [34]: 2.15 µM | TGI [34]: 4.65 µM | GI50 [35]: 1.71 µM | TGI [35]: 3.3 µM | GI50 [36]: 1.74 µM | TGI [36]: 3.26 µM | GI50 [37]: 1.82 µM | TGI [37]: 3.57 µM | GI50 [38]: 2.1 µM | TGI [38]: 6.43 µM | GI50 [39]: 2 µM | TGI [39]: 4.98 µM | GI50 [40]: 2.1 µM | TGI [40]: 4.71 µM | GI50 [41]: 1.73 µM | TGI [41]: 3.96 µM | GI50 [42]: 1.22 µM | TGI [42]: 4.09 µM | GI50 [43]: 1.79 µM | TGI [43]: 3.38 µM | GI50 [44]: 1.76 µM | TGI [44]: 3.63 µM | GI50 [45]: 2.28 µM | TGI [45]: 5.78 µM | GI50 [46]: 2.05 µM | TGI [46]: 4.4 µM | GI50 [47]: 1.92 µM | TGI [47]: 3.89 µM | GI50 [48]: 1.85 µM | TGI [48]: 5.65 µM | GI50 [49]: 1.81 µM | TGI [49]: 4.13 µM | GI50 [50]: 1.65 µM | TGI [50]: 3.08 µM | GI50 [51]: 3.09 µM | TGI [51]: 10.7 µM | GI50 [52]: 3.52 µM | TGI [52]: 12.2 µM | GI50 [53]: 2.13 µM | TGI [53]: 4.59 µM | GI50 [54]: 7.01 µM | TGI [54]: 19.2 µM | GI50 [55]: 1.62 µM | TGI [55]: 3.02 µM | GI50 [56]: 2.25 µM | TGI [56]: 4.82 µM | GI50 [57]: 1.45 µM | TGI [57]: 7.59 µM | GI50 [58]: 9.22 µM | TGI [58]: 22.6 µM | GI50 [59]: 1.56 µM | TGI [59]: 3.11 µM

Source: PubChem BioAssay (NCI)
